Assay results taken from ChEMBL document CHEMBL1158607, “2' biaryl amides as novel and subtype selective M1 agonists. Part I: Identification, synthesis, and initial SAR” (Bioorg Med Chem Lett, 2010).
Activity calls are given as the source filed them. No cut-off for these calls is given here.

How the values were obtained:
[1] = biological target: T1, Muscarinic acetylcholine receptor M1 (Homo sapiens, UniProt P11229); assay: Agonist activity at human muscarinic M1 receptor expressed in CHO cells assessed as effect on acetylcholine-induced intracellular calcium level by FLIPR assay; assay type: functional, cell-based
T1 sequence (P11229 whole entry): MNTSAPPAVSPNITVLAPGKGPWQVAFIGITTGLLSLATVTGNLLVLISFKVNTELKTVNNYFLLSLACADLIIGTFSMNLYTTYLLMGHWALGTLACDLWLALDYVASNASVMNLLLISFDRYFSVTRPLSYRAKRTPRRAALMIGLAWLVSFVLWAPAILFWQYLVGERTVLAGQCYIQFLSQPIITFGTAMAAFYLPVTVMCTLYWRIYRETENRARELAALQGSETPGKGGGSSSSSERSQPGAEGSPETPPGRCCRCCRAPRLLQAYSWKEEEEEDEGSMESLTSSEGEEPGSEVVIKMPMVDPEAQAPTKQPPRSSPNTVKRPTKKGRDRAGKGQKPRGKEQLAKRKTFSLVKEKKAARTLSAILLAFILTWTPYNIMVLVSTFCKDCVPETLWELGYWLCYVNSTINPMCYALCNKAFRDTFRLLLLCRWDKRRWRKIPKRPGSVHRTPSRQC

[2] = biological target: T2, Muscarinic acetylcholine receptor M1 (Homo sapiens) (UniProt P11229); assay: Intrinsic activity at human muscarinic M1 receptor expressed in CHO cells assessed as effect on acetylcholine-induced intracellular calcium level by FLIPR assay relative to acetylcholine; assay type: functional, cell-based
T2 sequence (whole entry): T1 sequence (P11229 whole entry)

[3] = biological target: Muscarinic acetylcholine receptors; M1 & M2 (Homo sapiens) (UniProt P11229+P08172); assay: Selectivity ratio of EC50 for human muscarinic M2 receptor to EC50 for human muscarinic M1 receptor
[4] = biological target: Muscarinic acetylcholine receptor M1 and M3 (Homo sapiens) (UniProt P20309+P11229); assay: Selectivity ratio of EC50 for human muscarinic M3 receptor to EC50 for human muscarinic M1 receptor
Chain of Muscarinic acetylcholine receptor M1 and M3 (Homo sapiens) (P20309 whole entry, looked up, one chain of several): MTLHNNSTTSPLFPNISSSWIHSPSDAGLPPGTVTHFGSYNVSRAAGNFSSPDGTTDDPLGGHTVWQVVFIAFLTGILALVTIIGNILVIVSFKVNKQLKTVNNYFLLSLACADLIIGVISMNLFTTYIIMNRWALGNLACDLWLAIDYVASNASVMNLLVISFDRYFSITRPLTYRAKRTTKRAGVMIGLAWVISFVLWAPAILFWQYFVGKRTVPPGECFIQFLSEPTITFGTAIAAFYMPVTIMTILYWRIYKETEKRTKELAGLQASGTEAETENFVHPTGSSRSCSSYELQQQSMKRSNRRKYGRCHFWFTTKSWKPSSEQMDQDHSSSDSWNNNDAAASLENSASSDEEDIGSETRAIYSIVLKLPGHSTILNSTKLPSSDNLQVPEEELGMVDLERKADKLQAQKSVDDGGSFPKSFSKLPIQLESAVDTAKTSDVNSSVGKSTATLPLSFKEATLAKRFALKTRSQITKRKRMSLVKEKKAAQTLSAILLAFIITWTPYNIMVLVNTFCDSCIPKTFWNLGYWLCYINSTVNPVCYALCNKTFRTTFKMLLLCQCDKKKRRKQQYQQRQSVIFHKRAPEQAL

Homo sapiens [5] = organism: Homo sapiens; assay: Selectivity ratio of EC50 for human muscarinic M4 receptor to EC50 for human muscarinic M1 receptor
Homo sapiens [6] = organism: Homo sapiens; assay: Selectivity ratio of EC50 for human muscarinic M5 receptor to EC50 for human muscarinic M1 receptor
[7] = biological target: T3, Muscarinic acetylcholine receptor M2 (Homo sapiens, UniProt P08172); assay: Inhibition of human muscarinic M2 receptor expressed in CHO cells; assay type: cell-based
T3 sequence (P08172 whole entry): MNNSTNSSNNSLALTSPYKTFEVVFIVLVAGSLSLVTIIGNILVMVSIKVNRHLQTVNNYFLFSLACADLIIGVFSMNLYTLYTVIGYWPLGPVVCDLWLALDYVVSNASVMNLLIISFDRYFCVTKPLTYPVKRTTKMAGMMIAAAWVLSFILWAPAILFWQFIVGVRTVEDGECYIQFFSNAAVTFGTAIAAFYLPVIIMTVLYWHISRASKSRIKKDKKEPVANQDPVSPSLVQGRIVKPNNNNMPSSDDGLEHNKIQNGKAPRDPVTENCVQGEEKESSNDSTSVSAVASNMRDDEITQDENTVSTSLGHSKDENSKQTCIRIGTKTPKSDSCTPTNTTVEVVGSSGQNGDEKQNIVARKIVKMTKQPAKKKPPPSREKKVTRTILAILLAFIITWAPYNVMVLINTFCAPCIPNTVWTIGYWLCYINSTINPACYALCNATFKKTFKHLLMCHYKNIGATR

[8] = biological target: T4, Muscarinic acetylcholine receptor M3 (Homo sapiens, UniProt P20309); assay: Inhibition of human muscarinic M3 receptor expressed in CHO cells; assay type: cell-based
Target sequence in this assay (P20309 whole entry): as the sequence (P20309 whole entry, looked up, one chain of several) above

[9] = biological target: T5, Muscarinic acetylcholine receptor M4 (Homo sapiens, UniProt P08173); assay: Inhibition of human muscarinic M4 receptor expressed in CHO cells; assay type: cell-based
T5 sequence (P08173 whole entry): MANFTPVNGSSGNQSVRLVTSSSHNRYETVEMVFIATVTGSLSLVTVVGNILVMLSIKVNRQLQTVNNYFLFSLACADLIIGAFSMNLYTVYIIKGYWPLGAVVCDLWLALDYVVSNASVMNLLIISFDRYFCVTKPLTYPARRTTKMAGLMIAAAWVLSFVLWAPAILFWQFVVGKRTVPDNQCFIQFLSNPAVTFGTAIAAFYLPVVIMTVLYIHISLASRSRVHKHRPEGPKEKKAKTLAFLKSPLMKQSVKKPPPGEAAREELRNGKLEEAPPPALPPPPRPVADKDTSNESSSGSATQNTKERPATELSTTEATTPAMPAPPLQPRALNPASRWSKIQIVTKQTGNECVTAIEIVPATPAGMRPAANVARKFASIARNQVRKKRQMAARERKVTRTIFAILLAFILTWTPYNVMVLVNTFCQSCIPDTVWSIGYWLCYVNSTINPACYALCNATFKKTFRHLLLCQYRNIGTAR

[10] = biological target: T6, Muscarinic acetylcholine receptor M5 (Homo sapiens, UniProt P08912); assay: Inhibition of human muscarinic M5 receptor expressed in CHO cells; assay type: cell-based
T6 sequence (P08912 whole entry): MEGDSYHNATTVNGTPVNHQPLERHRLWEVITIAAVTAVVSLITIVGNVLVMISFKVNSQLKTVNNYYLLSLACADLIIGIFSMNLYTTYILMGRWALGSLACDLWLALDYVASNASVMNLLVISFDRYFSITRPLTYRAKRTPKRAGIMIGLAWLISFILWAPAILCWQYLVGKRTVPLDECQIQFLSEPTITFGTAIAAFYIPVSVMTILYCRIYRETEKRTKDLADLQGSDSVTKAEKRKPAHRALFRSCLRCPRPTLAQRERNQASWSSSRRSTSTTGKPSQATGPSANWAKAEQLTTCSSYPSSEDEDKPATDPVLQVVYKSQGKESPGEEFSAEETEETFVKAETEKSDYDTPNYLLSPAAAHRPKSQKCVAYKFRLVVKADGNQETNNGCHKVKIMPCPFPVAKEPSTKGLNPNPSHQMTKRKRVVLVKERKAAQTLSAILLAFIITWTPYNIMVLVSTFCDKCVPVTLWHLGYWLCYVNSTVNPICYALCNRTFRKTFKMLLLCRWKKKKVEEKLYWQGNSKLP

[11] = biological target: T7, Muscarinic acetylcholine receptor M2 (Homo sapiens) (UniProt P08172); assay: Agonist activity at human muscarinic M2 receptor expressed in CHO cells assessed as effect on acetylcholine-induced intracellular calcium level by FLIPR assay; assay type: functional, cell-based
T7 sequence (whole entry): T3 sequence (P08172 whole entry)

[12] = biological target: T4, Muscarinic acetylcholine receptor M3; assay: Agonist activity at human muscarinic M3 receptor expressed in CHO cells assessed as effect on acetylcholine-induced intracellular calcium level by FLIPR assay; assay type: functional, cell-based
Target sequence in this assay (P20309 whole entry, looked up): as the sequence (P20309 whole entry, looked up, one chain of several) above

[13] = biological target: T8, Muscarinic acetylcholine receptor M4 (Homo sapiens) (UniProt P08173); assay: Agonist activity at human muscarinic M4 receptor expressed in CHO cells assessed as effect on acetylcholine-induced intracellular calcium level by FLIPR assay; assay type: functional, cell-based
T8 sequence (whole entry): T5 sequence (P08173 whole entry)

[14] = biological target: T9, Muscarinic acetylcholine receptor M5 (Homo sapiens) (UniProt P08912); assay: Agonist activity at human muscarinic M5 receptor expressed in CHO cells assessed as effect on acetylcholine-induced intracellular calcium level by FLIPR assay; assay type: functional, cell-based
T9 sequence (whole entry): T6 sequence (P08912 whole entry)

EC50 [1] [nM] | Intrinsic activity [2] [%] | Ratio EC50 [3] | Ratio EC50 [4] | Ratio EC50 (Homo sapiens [5]) | Ratio EC50 (Homo sapiens [6]) | IC50 [7] [nM] | IC50 [8] [nM] | IC50 [9] [nM] | IC50 [10] [nM] | Activity [11] | Activity [12] | Activity [13] | Activity [14] | SMILES
10 | 111 | 100 | 100 | 100 | 100 | 2000 | 1000 | 1580 | 5010 |  |  |  |  | O=C(NCC1CCNCC1)c1ccccc1-c1cc(Cl)ccc1F
20 | 99 | 100 | 100 | 100 | 100 | 3980 | 1260 | 3160 | > 10000 | inactive | inactive | inactive | inactive | CC1CNCCC1CNC(=O)c1ccccc1-c1cccc(Cl)c1 (centres undefined)
63.1 | 86 |  |  |  |  | 7940 | 3980 | 5010 | > 10000 | inactive | inactive | inactive | inactive | O=C(NCC1CCNCC1)c1ccccc1-c1cccc(Cl)c1
